Measurements: PMC6112376, “Comprehensive Analyses and Prioritization of Tox21 10K Chemicals Affecting Mitochondrial Function by in-Depth Mechanistic Studies” (Environmental Health Perspectives, 2018)
Where two headings read alike, the source gives them in different places.

Tests used:
rat primary hepatocytes [1] = assay: MMP assay in rat primary hepatocytes; settings: Rattus norvegicus, Hepatocyte, 1 h
HepG2 cells [2] = assay: cells; settings: Homo sapiens
[3] = system: Caenorhabditis elegans (Bristol N2); assay: C. elegans larval development and growth assay
[4] = system: Nrf2/ARE (ARE-bla HepG2 cells); assay: ARE β-lactamase reporter gene assay; assay type: cell-based, human; settings: 16 h incubation; mean±SD of three experiments
[5] = system: isolated rat liver mitochondria; assay: Oxygen consumption, Clark-type oxygen electrode; assay type: biochemical
HepG2 cells [6] = settings: cited from earlier work
rat primary hepatocytes [7] = system: rat primary hepatocytes
[8] = system: p53 (p53-bla HCT-116 cells); assay: p53 β-lactamase reporter gene assay; assay type: cell-based, human; settings: Homo sapiens; 16 h incubation; mean±SD of three experiments
hNSC = assay: MMP assay in human neural stem cells (hNSC); assay type: cell-based; settings: Homo sapiens, Neural stem cell, 1 h, read-out: hNSC IC50 (MMP)
[9] = system: HeLa cells expressing YFP-Parkin; assay: Parkin translocation assay; assay type: cell-based, human
HepG2 cells [10] = assay: Intracellular ATP content (cell viability) assay; assay type: cell-based, human; settings: Homo sapiens, HepG2, 40 h
[11] = system: Caenorhabditis elegans strain PE255; assay: In vivo C. elegans ATP status assay
HepG2 cells [12] = assay: ROS-Glo hydrogen peroxide (ROS) assay; assay type: cell-based, human

## O=C(Nc1ccc([N+](=O)[O-])cc1Cl)c1cc(Cl)ccc1O [Niclosamide, reference compound]
Rat primary hepatocytes [1]; read-out: IC50 in rat primary hepatocytes (MMP, tier-one retest)
  IC50: 440 nM
Rat primary hepatocytes [1]; read-out: Rat hepatocytes IC50 (MMP)
  IC50: 1360 nM
HepG2 cells [2]; HepG2, 1 h, read-out: HepG2 IC50 Galactose (MMP)
  IC50: 1470 nM
HepG2 cells [2]; HepG2, 1 h, read-out: HepG2 IC50 Glucose (MMP)
  IC50: 870 nM
HepG2 cells [2]; HepG2, read-out: IC50 in HepG2 cells (MMP, tier-one retest)
  IC50: 100 nM
HepG2 cells [2]; HepG2, read-out: MMP assays efficacy (%) HepG2
  Emax: 87%
[3]; 0.5 µM
  EXT: mean difference in nematode size relative to plate controls: 0.005018
[3]; 1 µM
  EXT: mean difference in nematode size relative to plate controls: -0.03083
[3]; 5 µM
  EXT: mean difference in nematode size relative to plate controls: -0.00657
[3]; 10 µM
  EXT: mean difference in nematode size relative to plate controls: 0.2753
[3]; 25 µM
  EXT: mean difference in nematode size relative to plate controls: 0.1226
[3]; 50 µM
  EXT: mean difference in nematode size relative to plate controls: 0.2162
[4]
  ARE (HepG2) EC50: Inactive
[5]
  Potential Mechanism: Uncoupler at low concentrations (0.064-0.16 µM), and Uncoupler + inhibitor at high concentrations (0.8-100 µM)
[5]; 0.00128 µM
  I-ADP, % of control (O2 consumption rate): 85 (30.5) % of control
  I-sub, % of control (O2 consumption rate): 109 (10.5) % of control
  II-ADP, % of control (O2 consumption rate): 92 (49.0) % of control
  II-sub, % of control (O2 consumption rate): 108 (17.7) % of control
[5]; 0.0064 µM
  I-ADP, % of control (O2 consumption rate): 88 (31.4) % of control
  I-sub, % of control (O2 consumption rate): 125 (12.0) % of control
  II-ADP, % of control (O2 consumption rate): 87 (46.4) % of control
  II-sub, % of control (O2 consumption rate): 109 (17.9) % of control
[5]; 0.032 µM
  I-ADP, % of control (O2 consumption rate): 103 (36.6) % of control
  I-sub, % of control (O2 consumption rate): 192 (18.4) % of control
  II-ADP, % of control (O2 consumption rate): 89 (47.7) % of control
  II-sub, % of control (O2 consumption rate): 132 (21.7) % of control
[5]; 0.16 µM
  I-ADP, % of control (O2 consumption rate): 126 (45.0) % of control
  I-sub, % of control (O2 consumption rate): 419 (40.2) % of control
  II-ADP, % of control (O2 consumption rate): 92 (49.0) % of control
  II-sub, % of control (O2 consumption rate): 230 (37.8) % of control
[5]; 0.8 µM
  I-ADP, % of control (O2 consumption rate): 85 (30.2) % of control
  I-sub, % of control (O2 consumption rate): 308 (29.6) % of control
  II-ADP, % of control (O2 consumption rate): 53 (28.1) % of control
  II-sub, % of control (O2 consumption rate): 204 (33.5) % of control
[5]; 4 µM
  I-ADP, % of control (O2 consumption rate): 70 (25.1) % of control
  I-sub, % of control (O2 consumption rate): 276 (26.5) % of control
  II-ADP, % of control (O2 consumption rate): 39 (21.1) % of control
  II-sub, % of control (O2 consumption rate): 147 (24.1) % of control
[5]; 20 µM
  I-ADP, % of control (O2 consumption rate): 79 (28.1) % of control
  I-sub, % of control (O2 consumption rate): 308 (29.6) % of control
  II-ADP, % of control (O2 consumption rate): 37 (19.6) % of control
  II-sub, % of control (O2 consumption rate): 145 (23.8) % of control
[5]; 100 µM
  I-ADP, % of control (O2 consumption rate): 93 (42.6) % of control
  I-sub, % of control (O2 consumption rate): 296 (45.9) % of control
  II-ADP, % of control (O2 consumption rate): 44 (31.3) % of control
  II-sub, % of control (O2 consumption rate): 119 (37.3) % of control
HepG2 cells [6]
  MMP assays efficacy (%) qHTS-HepG2: -98±4%
HepG2 cells [6]; read-out: MMP assays IC50 (µM), qHTS-HepG2
  IC50: 0.03 ± 0.01 µM
Rat primary hepatocytes [7]
  MMP assays efficacy (%) Rat Hepatocytes: -112±30%
  Rat hepatocytes (efficacy) (MMP): 1.36±0.16 ( −107±13.5 ) %
[8]
  EC50: 580 ± 490 nM
hNSC
  IC50: 420 nM
[9]
  Parkin recruitment: Active
HepG2 cells [10]; read-out: ATP (HepG2, galactose) IC50
  IC50: 2260 nM
HepG2 cells [10]; read-out: ATP (HepG2, glucose) IC50
  IC50: 2010 nM
[11]; 0.5 µM
  LUM: mean difference in luminescence (ATP content) relative to plate controls: 0.1961
[11]; 1 µM
  LUM: mean difference in luminescence (ATP content) relative to plate controls: 0.1905
[11]; 5 µM
  LUM: mean difference in luminescence (ATP content) relative to plate controls: 0.2783
[11]; 10 µM
  LUM: mean difference in luminescence (ATP content) relative to plate controls: 0.1333
[11]; 25 µM
  LUM: mean difference in luminescence (ATP content) relative to plate controls: 0.2438
[11]; 50 µM
  LUM: mean difference in luminescence (ATP content) relative to plate controls: 0.3
[11]; 75 µM
  LUM: mean difference in luminescence (ATP content) relative to plate controls: 0.12
[11]; 100 µM
  LUM: mean difference in luminescence (ATP content) relative to plate controls: 0.1413
HepG2 cells [12]
  ROS (HepG2) EC50: Inactive
